Measured values as given in patent publication US8883173B2 (priority 2007, dated 2014).
Entries after “also recorded” stand apart in the source; their conditions may differ. Square brackets hold non-standard residues; d marks the D form. Ends that are not written are not given here. NMeV = CN[C@H](C(=O)O)C(C)C

Columns and labels:
[1] = tested on: sera from Map infected animals (anti-Map antibodies); type: binding, bovines and goats
[2] = tested on: sera from M. bovis infected bovine; type: binding; details: read at 414 nm
[3] = tested on: sera from Mav- or Mai-infected human patients; type: binding
[4] = tested on: sera from M. avium subsp. avium-experimentally infected mouse; assay: ELISA with sera from Mav experimentally infected mouse; type: binding; details: FIG. 4B
[5] = tested on: IgA, IgM, IgG1 or IgG2 antibodies in sera of Map infected animals; type: binding, bovines

CCCCCCCCCCCCCCCCCCCC(=O)O [lipid moiety, eicosanoic acid, reference compound]
recognition by sera of Map-infected animals, compared with L5P [1]: poorly recognized

AcNH-DPhe-NMeVal-Ile-Phe-Ala (Ac-[dF][NMeV]IFA) [compound 10]
specific reaction with Map specific anti serum [1]: react specifically

AcNH-DPhe-NMeVal-Ile-Phe-Ala-OMe (Ac-[dF][NMeV]IFA-OMe; SMILES CC[C@H](C)[C@H](NC(=O)[C@H](C(C)C)N(C)C(=O)[C@@H](Cc1ccccc1)NC(C)=O)C(=O)N[C@@H](Cc1ccccc1)C(=O)N[C@@H](C)C(=O)OC) [Ac5P]
recognition by sera of Map-infected animals, compared with L5P [1]: recognized as efficiently as the L5P; also recorded: In some cases, the pentapeptide was even better recognized than the whole L5P

AcNH-DPhe-Val-Ile-Phe-Ala-OMe (Ac-[dF]VIFA-OMe; SMILES CC[C@H](C)[C@H](NC(=O)[C@@H](NC(=O)[C@@H](Cc1ccccc1)NC(C)=O)C(C)C)C(=O)N[C@@H](Cc1ccccc1)C(=O)N[C@@H](C)C(=O)OC) [compound 8]
specific reaction with Map specific anti serum [1]: react specifically

DPhe-NMeVal-Ile-Phe-Ala-OMe ([dF][NMeV]IFA-OMe) [compound 4]
antigenic response (ranking among analogues) [1]: best antigenic response
recognition by sera of Map-infected animals, compared with L5P [1]: recognized at least as efficiently
sensitivity for detection of Map-specific antibodies compared to L5P (1) [1]: higher sensitivity
specific reaction with Map specific anti serum [1]: react specifically

LipidC20-DPhe-NMeVal-Ile-Phe-Ala [compound 9]
specific reaction with Map specific anti serum [1]: react specifically

LipidC20-DPhe-NMeVal-Ile-Phe-Ala-OMe [L5P]
OD in ELISA [1]: above 1,5
specificity compared with PPD [1]: by far more specific than the PPD
O.D. in ELISA [2]: below 0.2
O.D. in ELISA [3]: below 0.2
reactivity with sera [4]: none was reacting
anti-L5P IgA in sera [5]: no IgA was detected
anti-L5P IgG1 in sera [5]: present
anti-L5P IgG2 in sera [5]: present
anti-L5P IgM in sera [5]: present
